Experimental data: PubChem BioAssay (NCI)
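GI50 is the concentration that inhibits growth by half. TGI: concentration producing complete growth inhibition.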

How the values were obtained:
Experiment in all cases: NCI anticancer screen, dose series, 384-well format
SN12C renal = system: SN12C renal
HOP-92 NSCLC = system: HOP-92 NSCLC
BT-549 breast = system: BT-549 breast
MOLT-4 leukemia = system: MOLT-4 leukemia
MDA-MB-435 melanoma = system: MDA-MB-435 melanoma
HCC-2998 colon = system: HCC-2998 colon
HT29 colon = system: HT29 colon
UACC-257 melanoma = system: UACC-257 melanoma
NCI-H522 lung = system: NCI-H522 lung
NCI-H322M lung = system: NCI-H322M lung
MDA-MB-231 breast = system: MDA-MB-231 breast
OVCAR-4 ovarian = system: OVCAR-4 ovarian
SF-295 CNS = system: SF-295 CNS

## NC(=O)c1nc(-c2c(F)cccc2Cl)oc1Nc1ccc(C(=O)N2CCOCC2)cc1
SN12C renal
  GI50: 1.64 µM
  TGI: 13.6 µM
HOP-92 NSCLC
  GI50: 0.576 µM
  TGI: 2.35 µM
BT-549 breast
  GI50: 2 µM
  TGI: 5.84 µM
MOLT-4 leukemia
  GI50: 0.182 µM
  TGI: 0.436 µM
MDA-MB-435 melanoma
  GI50: 11.8 µM
  TGI: > 51 µM
HCC-2998 colon
  GI50: 6.72 µM
  TGI: 21.9 µM
HT29 colon
  GI50: 2.48 µM
  TGI: 25 µM
UACC-257 melanoma
  GI50: 23.1 µM
  TGI: > 54.8 µM
NCI-H522 lung
  GI50: 0.795 µM
  TGI: 3.76 µM
NCI-H322M lung
  GI50: 6.5 µM
  TGI: 23.6 µM
MDA-MB-231 breast
  GI50: 1.34 µM
  TGI: 5.94 µM
OVCAR-4 ovarian
  GI50: 2.09 µM
  TGI: 6.3 µM
SF-295 CNS
  GI50: 2.95 µM
  TGI: > 45.9 µM
